The source of these data is patent publication US20090142766A1, “METHODS FOR MEASURING THE METABOLISM OF CNS DERIVED BIOMOLECULES IN VIVO” (Washington University in St. Louis, priority 2007, published 2009).

Data set [1] is described as follows: Aβ clearance in cortex of APPswe/PS1deltaE9 double transgenic mice. In kind it is in vivo. Particulars: cortex, 3, 6 and 18 hr after ^13C6-leucine 200 μg/g i.p. The protocol: To measure the brain Aβ clearance rate in mice, the method developed to assess ApoE clearance described above in Example 4 was performed in APPswe/PS1deltaE9 double transgenic mice (line #85; Jackson Labs, Bar Harbor, Me.). After a bolus intraperitioneal injection of ^13C6-leucine (200 μg/g), cortical brain tissue was harvested at 3, 6, and 18 hr post-injection (n=3) and lysed (lysis buffer, 1% Triton with PBS). Aβ was immunoprecipitated with an Aβ monoclonal antibody (HJ5.2, directed to Aβ 13-28) and then analyzed by nano-LC-MS/MS as described above. […] The clearance rate of soluble Aβ from cortex of transgenic mice was very similar with that of Aβ from human CSF as described by Bateman et al. 2006, supra.

Data set [2] can be described thus: Aβ fractional synthesis and clearance rate in CSF (immunoprecipitation-MS/MS after ^13C6-leucine labeling). In kind it is in vivo, human. Particulars: 6 healthy young participants. The text has this:
Protein production and clearance are important parameters that are tightly regulated and reflect normal physiology as well as disease states. Previous studies of protein metabolism in humans have focused on whole body or peripheral body proteins, but not on proteins produced in the central nervous system (CNS). No methods were previously available to quantify protein production or clearance rates in the CNS of humans. Such a method would be valuable to assess not only Aβ production or clearance rates in humans but also the metabolism of a variety other proteins relevant to diseases of the CNS. In order to address critical questions about underlying AD pathogenesis and Aβ metabolism, a method for quantifying Aβ fractional synthesis rate (FSR) and fractional clearance rate (FCR) in vivo in the CNS of humans was developed.
For each sample of CSF collected, the ratio of labeled to unlabeled Aβ was determined by immunoprecipitation-MS/MS, as described above. […]
The fractional synthesis rate (FSR) was calculated using the standard formula, presented below: […]
The fractional clearance rate (FCR) was calculated by fitting the slope of the natural logarithm of the clearance portion of the labeled Aβ curve, according to the following formula: […]

For data set [3] the following is noted: cited from earlier work.

Consider “Aβ: endogenous amyloid-beta peptide (SEQ ID NO:1) produced in the CNS from amyloid precursor protein”, for which, in data set [1], the “fractional clearance rate (FCR) of soluble cortical Aβ” value was found to be 7.62±1.25 % per hour. Moreover, the “average fractional clearance rate (FCR)” value in data set [2] (24 to 36 hours) is 8.3 %/hr. In data set [2] (slope 6 to 15 hours), the “average fractional synthesis rate (FSR)” value turned out to be 7.6 %/hr. For the same substance, in data set [3], the “t1/2 in brain interstitial fluid” value is 1 to 2 h.
